PubChem BioAssay AID1329 (NMMLSC, 2008)
Activity calls are given as the source filed them. No rule for the calls is given here.

The compounds below were run against Induced myeloid leukemia cell differentiation protein Mcl-1 (Homo sapiens) (UniProt Q07820) (assay: Mcl-1/Bim interaction regulators – biochemical, bead-based flow cytometry, multiplexed, human, dose response (AID 1329)). Settings: Bim peptide-Mcl-1 binding, MCF.
Chain of Induced myeloid leukemia cell differentiation protein Mcl-1 (Homo sapiens) (Q07820 whole entry, looked up): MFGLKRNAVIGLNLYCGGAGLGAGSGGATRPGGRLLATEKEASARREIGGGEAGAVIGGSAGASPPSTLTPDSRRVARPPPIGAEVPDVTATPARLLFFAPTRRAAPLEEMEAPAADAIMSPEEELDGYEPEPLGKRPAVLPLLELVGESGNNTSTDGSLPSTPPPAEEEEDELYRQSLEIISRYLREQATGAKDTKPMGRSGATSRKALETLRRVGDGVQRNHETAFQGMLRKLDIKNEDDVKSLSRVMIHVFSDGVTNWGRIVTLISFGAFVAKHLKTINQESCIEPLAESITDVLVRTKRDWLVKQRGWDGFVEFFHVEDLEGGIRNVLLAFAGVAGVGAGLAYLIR

SMILES	percent span
CCOC(=O)/C(=C\c1ccc(Cl)cc1)c1nc2sc(C)c(C)c2c(=O)[nH]1	inactive
CCCCOC(=O)c1nc(Cl)c(Cl)c(N)c1Cl	inactive
CN(C)/C=C/C(=O)c1ccc(C(F)(F)F)cc1F	inactive
CCN1CCN(c2ccc(NC(=O)c3cccc4ncccc34)cc2)CC1	inactive
Cn1c(CNc2nc(-c3ccccc3)cs2)nnc1SCC(=O)N1CCc2ccccc21	inactive
Cc1ccc(OCC(=O)NCc2ccccn2)c(Br)c1	inactive
Cc1ccc(/C=N/N(C)C2=NS(=O)(=O)c3ccccc32)o1	inactive
CSc1ccccc1NC(=O)CN(C)CC(=O)Nc1ccc(N2CCOCC2)cc1	inactive
Fc1ccccc1/C=C1\CCCC2=C1NC(=S)NC2c1ccccc1F (stereo not given)	inactive
COc1cc(C=Nc2cccc(C)c2)c(O)c([N+](=O)[O-])c1	inactive
Cc1ccc(C)n1-c1cccc(C(=O)O)c1	inactive
Cc1noc(C)c1CN1C(=O)NC(Cc2ccccc2)(Cc2ccccc2)C1=O	inactive
Cc1ccc(Nc2nc(C)cs2)cc1	inactive
Cc1cccn2c(=O)c3cc(C(N)=S)c(=N)n(CCCN4CCOCC4)c3nc12	inactive
CN(CCO)c1cc(Sc2nc3ccccc3s2)c2nonc2c1[N+](=O)[O-]	inactive
CC(=O)OCCNc1cc(Sc2nc3ccccc3[nH]2)c2nonc2c1[N+](=O)[O-]	inactive
CC(C)(C)C1CCC(=NNC(=O)c2cc3c(s2)CCCC3)CC1 (stereo not given)	inactive
Cc1cc(C)c2nc3nc(C)cc(C)c3c(N)c2c1	inactive
CC1N(C)c2cccc3cccc(c23)N1C	inactive
Cc1nn(-c2ccc(Cl)c(Cl)c2)c(C)c1C(=O)O	inactive
CCOc1cc(CNc2ccc(N(C)C)cc2)cc(Br)c1OCC(=O)NC(C)(C)C	inactive
O=C(C[n+]1ccc(-c2nnc3n2CCC3)cc1)c1ccc(Cl)cc1	inactive
Cc1[nH]n(C(N)=S)c(=O)c1N=Nc1ccc(S(=O)(=O)N2CCCCCC2)cc1	inactive
CCC(=O)OCCNc1cc(Sc2nccn2C)c2nonc2c1[N+](=O)[O-]	inactive
CCOc1ccccc1CNc1ccc(O)cc1	inactive
COc1cccc(-n2nnnc2SCC(=O)Nc2cccc(NC(C)=O)c2)c1	inactive
COc1ccc(C(=S)N2CCCCCC2)cc1	inactive
CCOc1cc(CNc2ccc(N3CCCCC3)cc2)cc(Br)c1OCC(=O)NC(C)(C)C	inactive

SMILES	percent span
O=C1NC(=O)C2(Cc3c(nc4ccccn4c3=O)N3CCCCCC32)C(=O)N1Cc1ccccc1 (stereo not given)	inactive
COc1ccc(-n2c(NC(=O)c3ccco3)c(C#N)c3nc4ccccc4nc32)cc1	inactive
O=C(Nc1nnc(SCc2ccccn2)s1)C1CC(=O)N(c2ccccc2)C1 (stereo not given)	inactive
N#C/C(=C(/O)CN1CCN(c2ccccc2F)CC1)c1nc(-c2ccccc2)cs1	inactive
COc1c(F)c(F)c(C(=O)Nc2ccccc2N2CCN(C(=O)C(C)C)CC2)c(F)c1F	inactive
Cc1ccnc(NS(=O)(=O)c2ccc(NS(=O)(=O)c3cccs3)cc2)n1	inactive
Cc1ccc(C(=O)NNC(=O)c2ccc3ncccc3c2)cc1	inactive
c1ccc2c(N3CCOCC3)nc(N3CCOCC3)nc2c1	inactive
O=C(NCCc1ccccc1)c1ccc2nc(-c3ccco3)c(-c3ccco3)nc2c1	inactive
CC(=O)Nc1ccc(-n2cc(-c3ccccc3)[nH]c2=S)cc1	inactive
COC(=O)CSc1ncnc2c1sc1nc(-c3ccco3)c3c(c12)CC(C)(C)OC3	inactive
COc1ccc2c3c(cccc13)N(C)N=C2C	inactive
Cc1cccc(C(=O)N=c2c(C#N)cc3c(=O)n4cccc(C)c4nc3n2Cc2ccco2)c1	inactive
Nc1ccccc1N=c1ssnc1Cl	inactive
N/C(=N\OC(=O)CCC1CCCC1)c1ccncc1	inactive
CCN(CC)c1ccc(NC(=O)COc2ccccc2C#N)cc1S(=O)(=O)Nc1ccccc1OC	inactive
NCC(c1ccccc1)c1c[nH]c2ccccc12 (stereo not given)	inactive
CNC(=S)N(Cc1cccs1)Cc1cc2ccc(OC)cc2[nH]c1=O	inactive
O=C(NCc1ccccc1)C(=O)Nc1nc(C23CC4CC(CC(C4)C2)C3)cs1	inactive
Clc1ccc2c(N/N=C/c3ccccc3Br)ccnc2c1	inactive
COc1ccccc1NC1=C(NC(C)=O)C(=O)c2ccccc2C1=O	inactive
CC(=O)c1ccc(NC(=O)c2ccc3nc(-c4ccco4)c(-c4ccco4)nc3c2)cc1	inactive
COCCNC(=O)CN1CCC(NC(=O)Nc2ccccc2)CC1	inactive
COc1ccc(CC(=O)Nc2ccccc2Oc2ccccc2)cc1	inactive
Cc1nc2ccccc2n1CSc1ccccc1	inactive
O=C(C1CCC(Cn2c(=S)[nH]c3ccccc3c2=O)CC1)N1CCN(c2ccccn2)CC1 (stereo not given)	inactive
O=C(O)CCN1C(=O)/C(=C\c2ccc(-c3nc4ccccc4s3)o2)SC1=S	inactive
